According to PubChem BioAssay AID190 (DTP/NCI, 2004):
Toxic doses and inconclusive results are not listed. How the source made its calls: active means survival T/C of 150% or more; inactive means T/C below 125% in these data. Numbered stars: 1 amine (or outer) side, 2 acyl side, 3 side chain; on linkers, the order of the positions; unused ones are H or OH. Bridge positions count the residues as written; N and C are the ends. Square brackets hold non-standard residues; d marks the D form. Peptide text beside a SMILES is read from it. I, II: the chains in the order shown. Actinocin(9to1) = Cc1c2oc3c(C)ccc(C(=O)[*:1])c3nc-2c(C(=O)[*:2])c(N)c1=O; aThr = C[C@H](O)[C@H](N)C(=O)O; NMeV = CN[C@H](C(=O)O)C(C)C; Sar = CNCC(=O)O

Test system: AKR/Lw mice, AKR lymphoma ip, median survival T/C
Assay: NCI In Vivo Anticancer Drug Screen. Data for tumor model Lymphoma AKR (Transplanted) (intraperitoneal) in AKR/Lw mice
Conditions: endpoint: median survival time, vehicle: saline, higher = longer survival
Experimental: The antitumor activity of compounds was measured in mice bearing transplantable tumors. Survival or tumor size were measured and the results are expressed as the measurement made in the treated group (T) divided by the measurement made in the vehicle treated control group (C). The tumor model used in this assay is Lymphoma AKR (Transplanted) (intraperitoneal) in AKR/Lw mice

Measured: T/C

Cc1c2oc3c(C)ccc(C(=O)N[C@@H]4C(=O)N[C@H](C(C)C)C(=O)N5CCC[C@H]5C(=O)N(C)CC(=O)N(C)[C@@H](C(C)C)C(=O)O[C@H]4C)c3nc-2c(C(=O)N[C@@H]2C(=O)N[C@H](C(C)C)C(=O)N3CCC[C@H]3C(=O)N(C)CC(=O)N(C)[C@@H](C(C)C)C(=O)O[C@H]2C)c(N)c1=O (I: [aThr][dV]P[Sar][NMeV] / II: [aThr][dV]P[Sar][NMeV]; ester I:1-I:C, II:1-II:C; linker I:N-II:N via Actinocin(9to1))
inactive: dose: 0.05 mg/kg/injection, schedule: Q01DX001 (ip) 110 % of control | dose: 0.1 mg/kg/injection, schedule: Q01DX001 (ip) 117 % of control | dose: 0.2 mg/kg/injection, schedule: Q01DX001 (ip) 112 % of control | dose: 1.0 micrograms/kg/injection, schedule: Q01DX015 (ip) 94 % of control | dose: 2.0 micrograms/kg/injection, schedule: Q01DX015 (ip) 108 % of control | dose: 4.0 micrograms/kg/injection, schedule: Q01DX015 (ip) 105 % of control | dose: 5.0 micrograms/kg/injection, schedule: Q01DX010 (ip) 109 % of control | dose: 6.0 micrograms/kg/injection, schedule: Q01DX015 (ip) 105 % of control | dose: 9.0 micrograms/kg/injection, schedule: Q01DX015 (ip) 111 % of control | dose: 10.0 micrograms/kg/injection, schedule: Q01DX010 (ip) 119 % of control | dose: 13.0 micrograms/kg/injection, schedule: Q01DX015 (ip) 94 % of control | dose: 20.0 micrograms/kg/injection, schedule: Q01DX015 (ip) 119 % of control
